The values that follow come from ChEMBL document CHEMBL1142747, “Prostatic acid phosphatase in cloacal derivatives” (Bioorg Med Chem Lett, 2005).

Structures are written as SMILES. Bounds are passed on as bounds.

Series [1] in a line: Half life of ECA-ATL in serum. The series is classed as ADME, cell-free. Particulars: human.
Series [2] is described as follows: Half life of ECA-ATL in buffer at pH 7.4. The format is ADME.

For `C=C(CC)C(=O)c1ccc(OCC(=O)OCCOCCO)c(Cl)c1Cl`, the results for the half-life in series [1] and in series [2] were < 0.0333 h and 110 h, respectively.

In the case of `C=C(CC)C(=O)c1ccc(OCC(=O)OCCOCCOCCOCCOCCOCCO)c(Cl)c1Cl`, the half-life (as a rule, the time needed for the level to fall by half in the phase considered) is < 0.0333 h in series [1] and 120 h in series [2].

With `C=C(CC)C(=O)c1ccc(OCC(=O)OCCOCCOCCOCCO)c(Cl)c1Cl`, the half-life in series [1] was < 0.0333 h; in series [2], 130 h.

As for `C=C(CC)C(=O)c1ccc(OCC(=O)OC(CNC(C)C)COc2ccc(CC(N)=O)cc2)c(Cl)c1Cl` (stereo not drawn), the half-life was 0.5 h in series [1] and 14 h in series [2].
